Results from patent US6737383B1, “Herbicidal oxadiazolidines” (priority 1999, dated 2004).

Experiments:
[1] = system: bedstraw; test: Test B pre/postemergence bedstraw; format: in vivo, Galium aparine
Summary of the method: (§1)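 Test chemicals in a non-phytotoxic solvent mixture with surfactant were sprayed preemergence onto planted seeds and postemergence onto plants 2 to 18 cm tall (1- to 4-leaf stage). After twelve to sixteen days in a greenhouse, injury was visually rated against untreated controls from 0 (no effect) to 10 (complete control).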

[2] = system: blackgrass; test: Test B pre/postemergence blackgrass; format: in vivo, Alopecurus myosuroides
Summary of the method: as §1

[3] = system: surinam grass; test: Test B pre/postemergence surinam grass; format: in vivo, Brachiaria decumbens
Summary of the method: as §1

[4] = system: cocklebur; test: Test B pre/postemergence cocklebur; format: in vivo, Xanthium strumarium; details: for Cocklebur plant response rating: scale of 0 to 10 where 0 is no effect and 10 is complete control
Summary of the method: as §1

[5] = system: corn; test: Test B pre/postemergence corn; format: in vivo, Zea mays; details: for Corn plant response rating: scale of 0 to 10 where 0 is no effect and 10 is complete control
Summary of the method: as §1

[6] = system: crabgrass; test: Test B pre/postemergence crabgrass; format: in vivo, Digitaria sanguinalis; details: for Crabgrass plant response rating: scale of 0 to 10 where 0 is no effect and 10 is complete control
Summary of the method: as §1

[7] = system: giant foxtail; test: Test B pre/postemergence giant foxtail; format: in vivo, Setaria faberii; details: for Giant foxtail plant response rating: scale of 0 to 10 where 0 is no effect and 10 is complete control
Summary of the method: as §1

[8] = system: morningglory; test: Test B pre/postemergence morningglory; format: in vivo, Ipomoea hederacea; details: for Morningglory plant response rating: scale of 0 to 10 where 0 is no effect and 10 is complete control
Summary of the method: as §1

[9] = system: pigweed; test: Test B pre/postemergence pigweed; format: in vivo, Amaranthus retroflexus; details: for Redroot pigweed plant response rating: scale of 0 to 10 where 0 is no effect and 10 is complete control
Summary of the method: as §1

[10] = system: rape; test: Test B pre/postemergence rape; format: in vivo, Brassica napus; details: for Rape plant response rating: scale of 0 to 10 where 0 is no effect and 10 is complete control
Summary of the method: as §1

[11] = system: soybean; test: Test B pre/postemergence soybean; format: in vivo, Glycine max
Summary of the method: as §1

[12] = system: sugar beet; test: Test B pre/postemergence sugar beet; format: in vivo, Beta vulgaris; details: for Sugarbeets plant response rating: scale of 0 to 10 where 0 is no effect and 10 is complete control
Summary of the method: as §1

[13] = system: velvetleaf; test: Test B pre/postemergence velvetleaf; format: in vivo, Abutilon theophrasti; details: for Velvetleaf plant response rating: scale of 0 to 10 where 0 is no effect and 10 is complete control
Summary of the method: as §1

[14] = system: wheat; test: Test B pre/postemergence wheat; format: in vivo, Triticum aestivum; details: for Wheat plant response rating: scale of 0 to 10 where 0 is no effect and 10 is complete control
Summary of the method: as §1

[15] = system: wild oat; test: Test B pre/postemergence wild oat; format: in vivo, Avena fatua; details: for Wild oats plant response rating: scale of 0 to 10 where 0 is no effect and 10 is complete control
Summary of the method: as §1

[16] = system: purple nutsedge; test: Test B pre/postemergence purple nutsedge; format: in vivo, Cyperus rotundus; details: for Nutsedge plant response rating: scale of 0 to 10 where 0 is no effect and 10 is complete control
Summary of the method: as §1

[17] = system: rice; test: Test B flood test rice; format: in vivo, Oryza sativa
Summary of the method: (§2)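 Each value is a visual injury score relative to controls, with 10 meaning complete control and 0 no effect. Evaluation took place twelve to sixteen days after the 2-leaf-stage plants were treated and kept in the greenhouse.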

[18] = system: smallflower flatsedge; test: Test B flood test smallflower flatsedge; format: in vivo, Cyperus difformis
Summary of the method: as §2

[19] = system: duck salad; test: Test B flood test duck salad; format: in vivo, Heteranthera limosa
Summary of the method: as §2

[20] = system: bamyardgrass; test: Test B flood test barnyardgrass; format: in vivo, Echinochloa crus-galli
Summary of the method: as §2

[21] = Postemergence, Rate 125 g/ha, scale 0 to 10, 0 is no effect, 10 is complete control
[22] = Preemergence, Rate 62 g/ha, scale 0 to 10 (0 no effect, 10 complete control)
[23] = Preemergence, Rate 250 g/ha, scale of 0 to 10 where 0 is no effect and 10 is complete control
[24] = Preemergence, Rate 500 g/ha, scale of 0 to 10 where 0 is no effect and 10 is complete control
[25] = Rate 62 g/ha, Postemergence, scale of 0 to 10 where 0 is no effect and 10 is complete control
[26] = Rate 250 g/ha, Postemergence, scale of 0 to 10 where 0 is no effect and 10 is complete control
[27] = Rate 500 g/ha, Postemergence, scale 0 to 10, 0 no effect, 10 complete control
[28] = Postemergence (flood test), Rate 125 g/ha, scale 0 to 10, 0 is no effect, 10 is complete control
[29] = Rate 62 g/ha, Postemergence (flood test species), scale of 0 to 10 where 0 is no effect and 10 is complete control
[30] = Rate 500 g/ha, listed under Postemergence (flood test species), scale 0 to 10, 0 no effect, 10 complete control

CC(C)N(C(=O)n1oc(=O)n(C2CCCO2)c1=O)c1ccc(F)cc1 (centres unmarked) [Compound 345]
0: Plant response rating, Bedstraw [1, 21] | Plant response rating, Bedstraw [1, 22] | Bedstraw plant response rating (0 to 10 scale) ([1]; Preemergence, Rate 125 g/ha) | Bedstraw plant response rating [1, 23] | Bedstraw plant response rating [1, 24] | Bedstraw plant response rating [1, 25] | Plant response rating, Bedstraw [1, 26] | Plant response rating, Bedstraw [1, 27] | Plant response rating, Blackgrass [2, 21] | Plant response rating, Blackgrass [2, 22] | Blackgrass plant response rating (0 to 10 scale) ([2]; Preemergence, Rate 125 g/ha) | Blackgrass plant response rating [2, 23] | Blackgrass plant response rating [2, 24] | Blackgrass plant response rating [2, 25] | Plant response rating, Blackgrass [2, 26] | Plant response rating, Blackgrass [2, 27] | Plant response rating, B. signalgrass [3, 21] | Plant response rating, B. signalgrass [3, 22] | B. signalgrass plant response rating (0 to 10 scale, 0 is no effect, 10 is complete control) ([3]; Preemergence, Rate 125 g/ha) | B. signalgrass plant response rating [3, 23] | B. signalgrass plant response rating [3, 24] | B. signalgrass plant response rating [3, 25] | Plant response rating, B. signalgrass [3, 26] | Plant response rating, B. signalgrass [3, 27] | Plant response rating, Cocklebur [4, 21] | Plant response rating, Cocklebur [4, 22] | Cocklebur plant response rating (0 to 10 scale) ([4]; Preemergence, Rate 125 g/ha) | Cocklebur plant response rating ([4]; Preemergence, Rate 250 g/ha) | Cocklebur plant response rating ([4]; Preemergence, Rate 500 g/ha) | Cocklebur plant response rating ([4]; Rate 62 g/ha, Postemergence) | Plant response rating, Cocklebur [4, 27] | Plant response rating, Corn [5, 21] | Plant response rating, Corn [5, 22] | Corn plant response rating (0 to 10 scale) ([5]; Preemergence, Rate 125 g/ha) | Corn plant response rating ([5]; Preemergence, Rate 250 g/ha) | Corn plant response rating ([5]; Preemergence, Rate 500 g/ha) | Corn plant response rating ([5]; Rate 62 g/ha, Postemergence) | Plant response rating, Corn [5, 27] | Plant response rating, Crabgrass [6, 21] | Plant response rating, Crabgrass [6, 22] | Crabgrass plant response rating (0 to 10 scale) ([6]; Preemergence, Rate 125 g/ha) | Crabgrass plant response rating ([6]; Preemergence, Rate 250 g/ha) | Crabgrass plant response rating ([6]; Preemergence, Rate 500 g/ha) | Crabgrass plant response rating ([6]; Rate 62 g/ha, Postemergence) | Plant response rating, Crabgrass [6, 27] | Plant response rating, Giant foxtail [7, 21] | Plant response rating, Giant foxtail [7, 22] | Giant foxtail plant response rating (0 to 10 scale) ([7]; Preemergence, Rate 125 g/ha) | Giant foxtail plant response rating ([7]; Preemergence, Rate 250 g/ha) | Giant foxtail plant response rating ([7]; Preemergence, Rate 500 g/ha) | Giant foxtail plant response rating ([7]; Rate 62 g/ha, Postemergence) | Plant response rating, Giant foxtail [7, 27] | Plant response rating, Morningglory [8, 21] | Plant response rating, Morningglory [8, 22] | Morningglory plant response rating (0 to 10 scale) ([8]; Preemergence, Rate 125 g/ha) | Morningglory plant response rating ([8]; Preemergence, Rate 250 g/ha) | Morningglory plant response rating ([8]; Preemergence, Rate 500 g/ha) | Morningglory plant response rating ([8]; Rate 62 g/ha, Postemergence) | Plant response rating, Morningglory [8, 27] | Plant response rating, Redroot pigweed [9, 21] | Plant response rating, Redroot pigweed [9, 22] | Redroot pigweed plant response rating (0 to 10 scale) ([9]; Preemergence, Rate 125 g/ha) | Redroot pigweed plant response rating ([9]; Preemergence, Rate 250 g/ha) | Redroot pigweed plant response rating ([9]; Preemergence, Rate 500 g/ha) | Redroot pigweed plant response rating ([9]; Rate 62 g/ha, Postemergence) | Plant response rating, Redroot pigweed [9, 27] | Plant response rating, Rape [10, 21] | Plant response rating, Rape [10, 22] | Rape plant response rating (0 to 10 scale) ([10]; Preemergence, Rate 125 g/ha) | Rape plant response rating ([10]; Preemergence, Rate 250 g/ha) | Rape plant response rating ([10]; Preemergence, Rate 500 g/ha) | Rape plant response rating ([10]; Rate 62 g/ha, Postemergence) | Plant response rating, Rape [10, 27] | Plant response rating, Soybean [11, 21] | Soybean plant response rating (0 to 10 scale) ([11]; Preemergence, Rate 125 g/ha) | Soybean plant response rating [11, 25] | Plant response rating, Soybean [11, 27] | Plant response rating, Sugarbeets [12, 21] | Plant response rating, Sugarbeets [12, 22] | Sugarbeets plant response rating (0 to 10 scale) ([12]; Preemergence, Rate 125 g/ha) | Sugarbeets plant response rating ([12]; Preemergence, Rate 250 g/ha) | Sugarbeets plant response rating ([12]; Preemergence, Rate 500 g/ha) | Sugarbeets plant response rating ([12]; Rate 62 g/ha, Postemergence) | Plant response rating, Sugarbeets [12, 27] | Plant response rating, Velvetleaf [13, 21] | Plant response rating, Velvetleaf [13, 22] | Velvetleaf plant response rating (0 to 10 scale) ([13]; Preemergence, Rate 125 g/ha) | Velvetleaf plant response rating ([13]; Preemergence, Rate 250 g/ha) | Velvetleaf plant response rating ([13]; Preemergence, Rate 500 g/ha) | Velvetleaf plant response rating ([13]; Rate 62 g/ha, Postemergence) | Plant response rating, Velvetleaf [13, 27] | Plant response rating, Wheat [14, 21] | Plant response rating, Wheat [14, 22] | Wheat plant response rating (0 to 10 scale) ([14]; Preemergence, Rate 125 g/ha) | Wheat plant response rating ([14]; Preemergence, Rate 250 g/ha) | Wheat plant response rating ([14]; Preemergence, Rate 500 g/ha) | Wheat plant response rating ([14]; Rate 62 g/ha, Postemergence) | Plant response rating, Wheat [14, 27] | Plant response rating, Wild oats [15, 21] | Plant response rating, Wild oats [15, 22] | Wild oats plant response rating (0 to 10 scale) ([15]; Preemergence, Rate 125 g/ha) | Wild oats plant response rating ([15]; Preemergence, Rate 250 g/ha) | Wild oats plant response rating ([15]; Preemergence, Rate 500 g/ha) | Wild oats plant response rating ([15]; Rate 62 g/ha, Postemergence) | Plant response rating, Wild oats [15, 27] | Plant response rating, Nutsedge [16, 21] | Plant response rating, Nutsedge [16, 22] | Nutsedge plant response rating (0 to 10 scale) ([16]; Preemergence, Rate 125 g/ha) | Nutsedge plant response rating ([16]; Preemergence, Rate 250 g/ha) | Nutsedge plant response rating ([16]; Preemergence, Rate 500 g/ha) | Nutsedge plant response rating ([16]; Rate 62 g/ha, Postemergence) | Plant response rating, Nutsedge [16, 27] | Plant response rating, Rice [17, 28] | Rice plant response rating [17, 29] | Plant response rating, Rice [17, 30] | Plant response rating, S. Flatsedge [18, 28] | S. Flatsedge plant response rating [18, 29] | Plant response rating, S. Flatsedge [18, 30] | Plant response rating, Ducksalad [19, 28] | Ducksalad plant response rating [19, 29] | Plant response rating, Ducksalad [19, 30] | Plant response rating, Barnyardgrass [20, 28] | Barnyardgrass plant response rating [20, 29] | Plant response rating, Barnyardgrass ([20]; Rate 250 g/ha, Postemergence (flood test species), scale of 0 to 10 where 0 is no effect and 10 is complete control) | Plant response rating, Barnyardgrass [20, 30]
